Values quoted from earlier work, collected in patent US20250067661A1, “SYSTEM FOR BODY FLUID ISOMER ANALYSIS” (KONINKLIJKE PHILIPS N.V., priority 2021, published 2025).

Conditions: intravenous solution containing a racemic mixture

| maximum increase in plasma concentration [fold] | SMILES |
| --- | --- |
| ≤ 13 | C[C@@H](O)C(=O)O [D-lactate] |
| ≤ 2 | C[C@H](O)C(=O)O [L-lactate] |
